Entries after “also recorded” stand apart in the source; their conditions may differ.
Assays:
mice [1] = assay: Spontaneous motility (actimeter); format: in vivo; conditions: i.p.
Experimental: (§1) The results of toxicological and neuropsychopharmacological tests which were carried out with the products according to the invention have been summarized below. In these tests, solutions of the said products in distilled water were administered intraperitoneally in a volume of 20 ml/kg to male mice and in a volume of 5 ml/kg to male rats.
0.5 h after they have received CRL 41 378, the mice (6 per dose, 12 control animals) are placed in an actimeter, where their motility is recorded for 30 minutes.

mice [2] = assay: Electric shock; format: in vivo; conditions: i.p.
Experimental: as §1
The test is performed on groups of 10 mice 30 minutes after the administration of CRL 41 378.

pregnant rabbits = assay: Teratogenic effects on pregnant rabbits; format: in vivo
[3] = tested on: hypothermia, trembling and peripheral cholinergic symptoms induced by oxotremorine; assay: Interaction with oxotremorine; format: in vivo; conditions: mice, i.p.; for minimal effective dose: Mus musculus, ip, read-out: dose as from which the hypothermia induced by oxotremorine is antagonized; for action on signs of peripheral cholinergic stimulation induced by oxotremorine / action on trembling induced by oxotremorine / action on hypothermia induced by oxotremorine: oxotremorine 0.5 mg/kg; for action on hypothermia induced by oxotremorine: hydrochloride
Summary of the method: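 Male mice, groups of 6, given the compound intraperitoneally in distilled water (20 ml/kg) 0.5 h before 0.5 mg/kg oxotremorine i.p. Hypothermia, trembling and peripheral cholinergic symptoms were assessed.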

[4] = tested on: sleep induced by barbital; assay: Interaction with barbital; format: in vivo; conditions: mice, i.p.; barbital 220 mg/kg
Experimental: as §1
Half an hour after the administration of CRL 41 378, groups of 10 mice receive an intraperitoneal injection of barbital (220 mg/kg).

pH of aqueous solution = format: physicochemical
Experimental: The tests were carried out in solution in water at pH 4.0-5.5. The pH of the aqueous solution of CRL 41 378 varies according to the concentration: it is 4.0 at a concentration of 50 g/l, 4.5 at 12.5 g/l, 5.0 at 0.8 g/l and 5.5 at CRL 41 378 concentrations less than or equal to 0.2 g/l.

[5] = tested on: stereotypies induced by amphetamine; assay: Interaction with amphetamine (rats); format: in vivo; conditions: i.p.; amphetamine 2 mg/kg
Experimental: as §1
(§2) Amphetamine (2 mg/kg) is injected intraperitoneally into groups of 6 rats 30 minutes after the administration of CRL 41 378.

[6] = tested on: depressions and depressive states; assay: Clinical trials in depression and depressive states; format: in vivo, human; conditions: daily oral administration to adults
Experimental: The clinical trials which have been undertaken have made it possible to determine that the daily dose to be administered orally to adults, in the treatment of depressions and depressive states, is generally between 3 and 120 mg for the products of the formulae Ia and Ib according to the invention.

rats = assay: Overall behavior and reactivities in rats; format: in vivo; conditions: i.p.
Summary of the method: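 Male mice (20 ml/kg) and male rats (5 ml/kg) dosed intraperitoneally with compound in distilled water.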

[7] = tested on: stereotypies induced by amphetamine; assay: Interaction with amphetamine (mice as printed); format: in vivo; conditions: in mice (so in the source), i.p.
Experimental: as §2
Using the procedures given above, the following results were obtained with a solution of CRL 41 382 in water at pH 6.

mice [8] = assay: Behavioral despair (forced immersion); format: in vivo; conditions: mice which have been forcibly immersed, i.p.; hydrochloride
Experimental: as §1
Half an hour after they have received CRL 41 378, groups of 6 mice are placed in a beaker filled with water to a height of 6 cm. The total period of immobility between the 2nd and 6th minutes following immersion is noted.

Compound	lethal effects of electric shock (mice [2])	teratogenic effects (pregnant rabbits)	minimal effective dose [3] [mg/kg]	action on signs of peripheral cholinergic stimulation induced by oxotremorine [3]	action on trembling induced by oxotremorine [3]	action on hypothermia induced by oxotremorine [3]	duration of the sleep induced by barbital [4]	results in human therapy (depression) [6]	other results
CC(=O)N1C=NCC(c2ccccc2)C1.Cl (centres unmarked) [CRL 41 378, 1-acetyl-5-phenyl-1,4,5,6-tetrahydropyrimidine hydrochloride]	At the two highest doses studied (16 and especially 64 mg/kg), CRL 41 378 strongly aggravates the lethal effects of electric shock	devoid of harmful teratogenic effects on pregnant rabbits	≥ 0.5	practically no modification of the signs of peripheral cholinergic stimulation induced by oxotremorine	does not modify the intensity of the trembling induced by oxotremorine	very intense at doses of 2 and 4 mg/kg and is then less significant for the highest doses used (16 and 64 mg/kg); also recorded: antagonism of the hypothermia induced by apomorphine, reserpine and oxotremorine in mice	practically no modification of the duration of the sleep induced by barbital	excellent results	spontaneous motor activity (mice [1]; hydrochloride): at a dose of 16 mg/kg and especially at a dose of 64 mg/kg, CRL 41 378 decreases the spontaneous motor activity of the mice; also recorded: a substantial decrease in the spontaneous motor activity of mice; convulsant effects of electric shock (mice [2]): without modifying the convulsant effects; pH of the aqueous solution (pH of aqueous solution; 0.8 g/l): 5.0; pH of the aqueous solution (pH of aqueous solution; 12.5 g/l): 4.5; pH of the aqueous solution (pH of aqueous solution; 50 g/l): 4.0; pH of the aqueous solution (pH of aqueous solution; less than or equal to 0.2 g/l): 5.5; action on stereotypies induced by amphetamine [5]: at the highest dose used (32 mg/kg), CRL 41 378 potentiates the stereotypies induced by amphetamine; overall behavior and reactivities (rats; 0.5 mg/kg): moderate mydriasis for 2 h, the maximum intensity being reached 0.5 h after administration; overall behavior and reactivities (rats; 2 mg/kg): mydriasis for 3 h, the maximum intensity also being reached 0.5 h after administration; overall behavior and reactivities (rats; 32 mg/kg, hydrochloride): a decrease in the breathing rate and muscle tonus for 1 h; also recorded: exophthalmos for 1 h; also recorded: piloerection for 2 h; also recorded: salivation appearing 0.5 h after administration; also recorded: vasodilation of the paws and snout for 0.5 h; also recorded: mydriasis for 2 h, the maximum intensity being reached 0.5 h after administration
Cl.OC1(c2ccccc2)CN=CNC1 (centres unmarked) [CRL 41 382, 5-hydroxy-5-phenyl-1,4,5,6-tetrahydropyrimidine hydrochloride]	aggravates (at a dose of 64 mg/kg) the lethal effects of electric shock	devoid of harmful teratogenic effects on pregnant rabbits	≥ 1	practically no modification of the trembling or the signs of peripheral cholinergic stimulation due to oxotremorine	practically no modification of the trembling	the antagonism is very intense at a dose of 64 mg/kg; also recorded: antagonism of the hypothermia induced by apomorphine, oxotremorine and reserpine in mice	practically no modification of the duration of the sleep induced by barbital	excellent results	action on stereotypies induced by amphetamine [7]: practically no modification of the stereotypies induced by amphetamine; spontaneous motor activity (mice [1]): does not modify the spontaneous motor activity of mice; convulsant effects of electric shock (mice [2]; hydrochloride): does not oppose the convulsant effects; also recorded: absence of any anticonvulsant action; period of immobility (mice [8]): does not modify the period of immobility; also recorded: absence of antagonism of the immobility due to "despair"; overall behavior and reactivities (rats; 0.5 mg/kg, 2 mg/kg and 8 mg/kg): behavior, reactivities and variations in the pupil diameter and rectal temperature which are analogous to those of the control group; overall behavior and reactivities (rats; 32 mg/kg): moderate mydriasis for 1 h

Source: patent publication US4774248A, “Methods of treating depression and depressive states using 5-phenyl-1,4,5,6-tetrahydropyrimidine derivatives” (priority 1985, dated 1988)
